Twelve molecules from patent US20100256183A1, “FUNGICIDAL 2-ALKYLTHIO-2-QUINOLINYLOXY-ACETAMIDE DERIVATIVES” (priority 2007, published 2010) can be followed below.

Test [1] has as its system Plasmopara viticola. Put plainly: Leaf disk assay, Plasmopara viticola (downy mildew of grapevine). Format: in vivo. Particulars: foliar, 168 h, read-out: control of fungal infection.
Test [2] deals with Erysiphe graminis f.sp. tritici. Kind of test: Leaf disk assay, Erysiphe graminis f.sp. tritici (wheat powdery mildew). Format: in vivo. The following applies: Blumeria graminis, foliar, 96 h, read-out: control of fungal infection.
Test [3] has as its system Pythium ultimum. Put plainly: Pythium ultimum (damping off) growth inhibition in potato dextrose broth, photometric. Format: cell-based. The following applies: Globisporangium ultimum, 48 h, read-out: control of fungal infection.
In test [4] the test system is Phytophthora infestans. Kind of test: whole plant or invertebrate. Particulars: in Solanum lycopersicum, foliar, 96 h, read-out: control of fungal infection. Format: in vivo.
Test [5] has as its system Septoria nodorum. Put plainly: Leaf disk assay, Septoria nodorum (wheat glume blotch). Format: in vivo. Particulars: for pest or weed control at 200 ppm: Parastagonospora nodorum, foliar, 96 h, read-out: control of fungal infection.

SMILES strings stand for the structures. Read-outs that look alike come from different tables or passages of the source. Where only a bound is given, the exact number is not on record here.

In the case of `CCC#CC(C)(C)NC(=O)C(Oc1cc(C)c2ncc(Br)cc2c1)SC` (stereo not shown) [4(4), 2-(3-Bromo-8-methyl-quinolin-6-yloxy)-N-(1,1-dimethyl-pent-2-ynyl)-2-methylsulfanyl-acetamide], the pest or weed control at 200 ppm in test [1] is ≥ 60%.
As for `COCCC#CC(C)(C)NC(=O)C(Oc1cc(C)c2ncc(Br)cc2c1)SC` (stereo not shown) [5(4), 2-(3-Bromo-8-methyl-quinolin-6-yloxy)-N-(5-methoxy-1,1-dimethyl-pent-2-ynyl)-2-methylsulfanyl-acetamide], the pest or weed control at 200 ppm in test [1], in test [2] and in test [4] was ≥ 60% in each case. In addition, the inhibition of growth at 20 ppm in test [3] was ≥ 60%.
In the case of `CC#CC(C)(CC)NC(=O)C(Oc1cc(C)c2ncc(Br)cc2c1)SC` (stereo not shown) [8(4), 2-(3-Bromo-8-methyl-quinolin-6-yloxy)-N-(1-ethyl-1-methyl-but-2-ynyl)-2-methylsulfanyl-acetamide], the pest or weed control at 200 ppm in test [5] and in test [1] was ≥ 60% each time.
On to `C#CC(C)(NC(=O)C(Oc1cc(C)c2ncc(Br)cc2c1)SC)C(C)C` (stereo not shown) [12(4), 2-(3-Bromo-8-methyl-quinolin-6-yloxy)-N-(1-isopropyl-1-methyl-prop-2-ynyl)-2-methylsulfanyl-acetamide], for which the pest or weed control at 200 ppm in test [5] (200 ppm, wheat leaf segments, preventive, four days after inoculation) is ≥ 60%; in test [1] (200 ppm, grapevine leaf disks, preventive, seven days after inoculation), ≥ 60%.
For the molecule `CCC#CC(C)(C)NC(=O)C(Oc1cc(C)c2ncc(Cl)cc2c1)SC` (stereo not shown) [20(4), 2-(3-Chloro-8-methyl-quinolin-6-yloxy)-N-(1,1-dimethyl-pent-2-ynyl)-2-methylsulfanyl-acetamide], the pest or weed control at 200 ppm in test [4] is ≥ 60%.
`CCOCC#CC(C)(C)NC(=O)C(Oc1cc(C)c2ncc(Br)cc2c1)SC` (stereo not shown) [22(4), 2-(3-Bromo-8-methyl-quinolin-6-yloxy)-N-(4-ethoxy-1,1-dimethyl-but-2-ynyl)-2-methylsulfanyl-acetamide]: the pest or weed control at 200 ppm in test [1] was ≥ 60%.
As for `COCCOCCC#CC(C)(C)NC(=O)C(Oc1cc(C)c2ncc(Br)cc2c1)SC` (stereo not shown) [25(4), 2-(3-Bromo-8-methyl-quinolin-6-yloxy)-N-[5-(2-methoxy-ethoxy)-1,1-dimethyl-pent-2-ynyl]-2-methylsulfanyl-acetamide], the pest or weed control at 200 ppm in test [1] and in test [4] was ≥ 60% throughout. In addition, the inhibition of growth at 20 ppm in test [3] is ≥ 60%.
In the case of `CSC(Oc1cc(C)c2ncc(Br)cc2c1)C(=O)NC(C)(C)C#CC(C)(O)CCl` (stereo not shown) [27(4), 2-(3-Bromo-8-methyl-quinolin-6-yloxy)-N-(5-chloro-4-hydroxy-1,1,4-trimethyl-pent-2-ynyl)-2-methylsulfanyl-acetamide], the pest or weed control at 200 ppm in test [1] and in test [2] was ≥ 60% in each case.
For `COCOCC#CC(C)(C)NC(=O)C(Oc1cc(C)c2ncc(Br)cc2c1)SC` (stereo not shown) [31(4), 2-(3-Bromo-8-methyl-quinolin-6-yloxy)-N-(4-methoxymethoxy-1,1-dimethyl-but-2-ynyl)-2-methylsulfanyl-acetamide], the pest or weed control at 200 ppm in test [2] and in test [4] was ≥ 60% each time. For the same molecule, the inhibition of growth at 20 ppm in test [3] is ≥ 60%.
On to `COCCOCOCC#CC(C)(C)NC(=O)C(Oc1cc(C)c2ncc(Br)cc2c1)SC` (stereo not shown) [32(4), 2-(3-Bromo-8-methyl-quinolin-6-yloxy)-N-[4-(2-methoxy-ethoxymethoxy)-1,1-dimethyl-but-2-ynyl]-2-methylsulfanyl-acetamide], for which the pest or weed control at 200 ppm in test [1], in test [2] and in test [4] was ≥ 60% throughout.
As for `CC#CC(C)(C)NC(=O)C(Oc1cc(CC)c2ncc(Br)cc2c1)SC` (stereo not shown) [34(4), 2-(3-Bromo-8-ethyl-quinolin-6-yloxy)-N-(1,1-dimethyl-but-2-ynyl)-2-methylsulfanyl-acetamide], the pest or weed control at 200 ppm in test [1] and in test [2] was ≥ 60% in each case. Moreover, the inhibition of growth at 20 ppm in test [3] was ≥ 60%.
As to `C#CC(C)(C)NC(=O)C(Oc1ccc2ncc(Cl)cc2c1)SC` (stereo not shown) [Compound 1(23), reference compound], the “Efficacy (%)” value is on record as 0% in test [5] (20 ppm, preventive, four days after inoculation); 0% in test [5] (60 ppm, preventive, four days after inoculation); 0% in test [5] (200 ppm, preventive, four days after inoculation).
